Measurements from PubChem BioAssay (NCI).
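Step 1: Grow cells in 96-well plates. Step 2: Expose to compound for 48 hours at 5 concentrations. Step 3: Interpolate endpoints linearly; if unreached, use highest concentration. GI50: concentration for 50% inhibition of growth. TGI marks complete inhibition of growth.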

Experiments:
Assay in all cases: DTP human tumour cell line panel, 48 h
SF-268 CNS = tested on: SF-268 CNS
U251 CNS = tested on: U251 CNS
HCT-116 colon = tested on: HCT-116 colon
SK-MEL-28 melanoma = tested on: SK-MEL-28 melanoma
OVCAR-8 ovarian = tested on: OVCAR-8 ovarian
K-562 leukemia = tested on: K-562 leukemia
RPMI-8226 leukemia = tested on: RPMI-8226 leukemia
HCC-2998 colon = tested on: HCC-2998 colon
A498 renal = tested on: A498 renal
SN12C renal = tested on: SN12C renal

| Structure (SMILES) | GI50 (SF-268 CNS) | TGI (SF-268 CNS) | GI50 (U251 CNS) | TGI (U251 CNS) | GI50 (HCT-116 colon) | TGI (HCT-116 colon) | GI50 (SK-MEL-28 melanoma) | TGI (SK-MEL-28 melanoma) | GI50 (OVCAR-8 ovarian) | TGI (OVCAR-8 ovarian) | GI50 (K-562 leukemia) | TGI (K-562 leukemia) | GI50 (RPMI-8226 leukemia) | TGI (RPMI-8226 leukemia) | GI50 (HCC-2998 colon) | TGI (HCC-2998 colon) | GI50 (A498 renal) | TGI (A498 renal) | GI50 (SN12C renal) | TGI (SN12C renal) |
| --- | --- | --- | --- | --- | --- | --- | --- | --- | --- | --- | --- | --- | --- | --- | --- | --- | --- | --- | --- | --- |
| Cc1ccc(-c2csc(N(C(=O)N3CCN(c4cc5c(cc4F)c(=O)c(C(=O)O)cn5C4CC4)CC3)c3ccccc3)n2)cc1 | 0.432 µM | > 100 µM | 0.368 µM | 6.73 µM | 0.333 µM | > 100 µM | 0.582 µM | > 100 µM | 0.405 µM | > 100 µM | 0.269 µM | > 100 µM | 0.368 µM | > 100 µM | 0.537 µM | > 100 µM | 0.0363 µM | 0.443 µM | – | – |
| O=c1ncc(-c2ccc(C(F)(F)F)cc2)c(NC2CCCCCC2)[nH]1 | 18.4 µM | 36.5 µM | – | – | 16.8 µM | 33.6 µM | 17 µM | 33.9 µM | 18.7 µM | 40.4 µM | 24.2 µM | 60.1 µM | 15.8 µM | 39.6 µM | 20 µM | 35.9 µM | 16.1 µM | 34 µM | 16.2 µM | 33 µM |
| O=C1C=C(Nc2ccccc2)c2ncccc2C1=O | 0.446 µM | 1.8 µM | 0.348 µM | 1.2 µM | 0.291 µM | 0.883 µM | 1.7 µM | 3.24 µM | 0.373 µM | 1.4 µM | – | – | 0.305 µM | 1.3 µM | 1.55 µM | 3 µM | 1.64 µM | 3 µM | 0.29 µM | 0.829 µM |
| C[C@H](c1ccc(Cl)cc1N)N1C(=O)c2cc(I)ccc2N(CCCN2CCN(C)CC2)C(=O)[C@@H]1c1ccc(Cl)cc1 | 1.7 µM | 3.2 µM | 1.52 µM | 2.85 µM | 1.3 µM | 2.63 µM | 1.69 µM | 3.08 µM | – | – | 1.57 µM | 3.3 µM | 1.7 µM | 3.69 µM | 1.63 µM | 3.03 µM | 1.3 µM | 2.7 µM | 1.59 µM | 3.03 µM |
| O=C1C(=O)c2cc([N+](=O)[O-])ccc2-c2ccccc21 | 1.29 µM | 2.62 µM | 1.35 µM | 2.7 µM | 1.43 µM | 2.82 µM | 1.73 µM | 3.11 µM | 1.71 µM | 3.6 µM | – | – | 2.21 µM | 4.7 µM | 1.77 µM | 3.18 µM | 12.5 µM | 25.1 µM | 1.66 µM | 3.05 µM |
| COc1ccc2[nH]c3c4c(c5cc(C(C)(C)C)ccc5c3c2c1)C(=O)N(c1ccccc1)C4=O | – | > 100 µM | – | > 100 µM | – | > 100 µM | – | > 100 µM | – | > 100 µM | – | > 100 µM | – | > 100 µM | – | 47.4 µM | – | 61.6 µM | – | – |
| c1cncc(C2c3[nH]c4ccccc4c3CCN2CCCN2CCCCC2)c1 (stereo unspecified) | – | – | – | > 100 µM | – | > 100 µM | – | 47 µM | – | > 100 µM | – | > 100 µM | – | > 100 µM | – | > 100 µM | – | > 100 µM | – | > 100 µM |
| CN1C(=O)n2c(nc3ccccc32)C(N=[N+]=[N-])(N=[N+]=[N-])C1=O (stereo unspecified) | – | > 100 µM | – | > 100 µM | – | > 100 µM | – | > 100 µM | – | > 100 µM | – | > 100 µM | – | > 100 µM | – | > 100 µM | – | > 100 µM | – | – |
| CCC[CH2][Sn]1([CH2]CCC)[O]C(c2ccccn2)S(=O)(=O)[O]1 (stereo unspecified) | – | – | 2.96 µM | 11.8 µM | 11 µM | 22.9 µM | 1.94 µM | 3.76 µM | 2.06 µM | 4.79 µM | 2.14 µM | 6.72 µM | 2.23 µM | 6.46 µM | 4.63 µM | 18.3 µM | 18.1 µM | 32.1 µM | 9.11 µM | 21.1 µM |
| COc1cccc(/C=C(/C(=O)O)c2cc(OC)c(OC)c(OC)c2)c1 | – | > 100 µM | – | > 100 µM | – | > 100 µM | – | > 100 µM | – | > 100 µM | – | > 100 µM | – | > 100 µM | – | – | – | > 100 µM | – | > 100 µM |
| O=c1[nH]cnc2c(C3OC(CO)C(O)C3O)[nH]nc12 (stereo unspecified) | – | – | – | > 100 µM | – | > 100 µM | – | > 100 µM | – | 70.3 µM | – | > 100 µM | – | > 100 µM | – | > 100 µM | – | > 100 µM | – | > 100 µM |
| C#C[C@@]1(O)[C@@H](CO)O[C@@H](n2cc(Cl)c3c(N)ncnc32)[C@@H]1O | 0.333 µM | 21.2 µM | – | – | 0.0221 µM | > 100 µM | 0.575 µM | 71.5 µM | 0.0336 µM | 1.48 µM | 0.0993 µM | > 100 µM | 0.151 µM | 0.607 µM | 0.186 µM | 0.532 µM | 0.274 µM | 0.659 µM | – | – |
| O=C(O)C1C2C=CC(O2)C1C(=O)Nc1ccccc1 (stereo unspecified) | – | > 100 µM | – | > 100 µM | – | > 100 µM | – | > 100 µM | – | > 100 µM | – | > 100 µM | – | > 100 µM | – | – | – | > 100 µM | – | > 100 µM |
| CCOC(=O)/C(=C/c1ccc(OC)c(OC)c1)C(=O)c1ccccc1 | – | 36.7 µM | – | 65 µM | – | – | – | 28.5 µM | – | 76.8 µM | – | > 100 µM | – | 39.1 µM | – | 32.5 µM | – | 46.5 µM | – | – |
